Where a SMILES comes first, the peptide text is derived from it. Where no end group is shown, it is not given here. The star is where a group is joined. Decanoyl = CCCCCCCCCC(=O)*; CH2Cl = ClC*
Tests used:
[1] = system: HPV16 pseudovirions (PsVs); test: HPV16 PsV luciferase infectivity assay, HaCaT cells pretreated with peptide; assay type: cell-based; conditions: 24 h; for inhibition of HPV16 PsV infection: 6 μM, 30 min pretreatment of HaCaT cells, 300 vge/cell
Protocol: HaCaT cells were cultured in complete growing medium (CM; Dulbecco's modified Eagle's medium nutrient mixture F-12 HAM (Sigma-Aldrich, St. Louis, Mo.)) supplemented with 10% fetal bovine serum (FBS), amino acids (Sigma-Aldrich, St. Louis, Mo.), 2 mM L-glutamine, 100 U/ml penicillin and 1 μg/ml streptomycin (Sigma-Aldrich, St. Louis, Mo.), as previously described (Patterson et al., 2005. J Virol 79:6838-6847). Semi-confluent cells were pretreated for 30 minutes with arginine-rich peptides dissolved in CM (6 μM gp91dstat, gp91dstat (scramble), R9, and TAT, or 3 polyR) before the exposure to HaCaT cells and 300 vge/cell HPV16 pseudovirions (PsVs) packaging a luciferase reporter plasmid. Infectivity was scored after 24 hours of incubation at 37° C. (i.e., post infection) by Lumat LB9501 (Berthold Technologies GmbH & Co KG, Bad Wildbad, Germany) equipment, using the luciferase assay kit (Promega, Madison, Wis.) according to manufacturer's specification. Raw data were normalized to total cellular protein concentration. Graph summarizes triplicate treatments; error bars represent SEM.
Fifty percent inhibitory concentration (IC50) of HPV16 PsV infection of HaCaT cells by the compounds. For generation of an inhibitory concentration 50 (IC50) curves, cells were pretreated with the indicated concentration of arginine-rich peptides prior to HPV16 PsV exposure. Infectivity was scored after 24 hours of incubation at 37° C. and the data from two independent duplicate experiments were pooled and analyzed using non-linear regression (curve fit) function of PRISM software (GraphPad Software, Inc., LaJolla, Calif.).
Semi-confluent HaCaT cells maintained in CM, were pretreated for one hour with PrS dissolved in CM at the 0-5.8 μM concentrations before exposure to HPV16 PsVs (350 vge/cell). Infectivity was scored after 24 hours of incubation at 37° C. using a luminometer (Lumat LB9501, Berthold GmbH & Co., Bad Wildbad, Germany) and luciferase assay (Promega, Madison, Wis.) according to manufacturer's specification. Raw data were normalized to total cellular protein concentration.
For generation of an inhibitory concentration 50 (IC50) curve for PrS inhibition, data from two independent duplicate experiments was pooled and analyzed using the non-linear regression (curve fit) function of PRISM (GraphPad Software, Inc., La Jolla, Calif.).
3 μM PrS incubated for one hour at room temperature with 2 mg/ml high or low molecular weight HA in CM, prior to the addition to HaCaT cells. 350 vge/cell HPV16 PsVs were used for infection of cells in the presence or absence of PrS or HA:PrS complex. Infection was scored after 24 hours as described in FIG. 12.
HaCaT cells were pretreated with 6 μM concentrations of gp91dstat, gp91dstat (scramble), R9, or TAT, or 3 μM polyR. After 30 minutes of incubation at 37° C., cells were infected with HPV16 pseudovirions (PsVs) at a dose of 300 viral genome equivalents (vge)/cell, and the relative infectivity was quantified after 24 hours compared to infection in untreated cells (FIG. 1). Each treatment was performed in triplicate.
To evaluate the anti-HPV activity of PrS, HaCaT cells, a keratinocyte-derived cell line, was used as a model for analysis of HPV infection. […]
Infections were initiated using Luciferase-expressing HPV16 PsVs that were produced, isolated, and quantified as described previously (Surviladze et al., 2012. PLoS Pathogens 8: e1002519; Campos S K and Ozbun M A, 2009. PloS One 4:e4463). […]

[2] = system: HPV16 PsVs; test: Direct pre-incubation of HPV16 PsVs with peptide, dilution below IC50, then infection of HaCaT cells; assay type: cell-based; conditions: 1 μM, 1 h 37° C., diluted below IC50, HaCaT cells 24 h
Protocol: FIG. 3. […] HPV16 PsVs were incubated with 0.3 μM polyR for one hour at 37° C. The virus-polyR mixture was diluted with CM to reduce the polyR concentration below the IC50 value prior to incubation with HaCaT cells for 24 hours (HPV16-polyR). The control included untreated HPV16 PsVs (HPV16) added to HaCaT cells. Infection was measured after 24-hour incubation.
FIG. 15. Direct interaction of PrS to HPV16 PsVs. HPV16 PsVs were incubated with 1 μM PrS or HA:PrS complex for one hour at 37° C. Virus-PrS/or HA:PrS mixture was diluted with CM in order to reduce the PrS concentration below the IC50 value, and incubated with HaCaT cells for 24 hours. The control included untreated HPV16 PsVs. Infection was measured after 24 hours incubation as described in FIG. 12.
Typically, direct interaction of cationic inhibitors with the viral capsids of non-enveloped viruses (including HPV) is sufficient for antiviral activity. To determine whether polyR inhibited HPV16 infectivity by direct interaction with viral capsids, HPV16 PsVs were incubated with […] for one hour at 37° C. The virus-polyR mixture was diluted 1500-fold to reduce the polyR concentration below the IC50 value, then incubated with HaCaT cells. The control included cells exposed to HPV PsVs that were not treated with polyR. […]

[3] = system: HPV16 PsVs; test: HPV16 PsV binding to HaCaT cells at 4° C. (L1 immunoblot / immunofluorescence); assay type: cell-based; conditions: 4° C. 1 h
Protocol: FIG. 4. PolyR treatment of host cells inhibits HPV16 binding to cells. (A) Confluent HaCaT cell monolayers were treated with 1 μM polyR (in CM) for 30 minutes, before adding 100 vge/cell HPV16 PsVs, and incubated at 4° C. for one hour (to promote binding but prevent virus internalization). After washing out of unbound virus, cells were lysed (25 mM Tris pH7.5, 150 mM NaCl, 1% Triton-X100 supplemented with protease inhibitors) and centrifuged at 16,000×g for 10 minutes. Protein concentrations in supernatant were measured using the Bradford method (Bio-Rad Laboratories, Inc., Hercules, Calif.). Samples were boiled in SDS-containing sample buffer, and aliquots containing equal amount of protein ([…] to 200 μg) separated by SDS-polyacrylamide gel electrophoresis (SDS-PAGE), using 10% gel. Proteins were transferred onto polyvinylidene difluoride (PVDF) membranes and subjected to analysis using anti-HPV16 L1 primary antibody (Camvir-1, sc-47699, Santa Cruz Biotechnology, Inc., Dallas, Tex.;1:5000 dilution) for detection of HPV16 major capsid protein, L1. Proteins were visualized by enhanced chemiluminescence (SUPERSIGNAL West Pico Chemiluminescent Substrate, Thermo Fisher Scientific, Inc., Waltham, Mass.) and exposed to film (Phenix Research Products, Candler, N.C.). (B) Immunofluorescence assays were performed essentially as described previously (Surviladze et al., 2012. PLoS Pathogens 8:e1002519). HaCaT cells were grown on coverslips at approximately 50% confluence and treated with 3 μM polyR for 30 minutes at 37° C. before the addition of 1000 vge of HPV16 PsVs per coverslip. Cells were incubated for one hour at 4° C. and washed several times with PBS, before the fixation with 4% paraformaldehyde (PFA). BSA-blocked cells were incubated with rabbit polyclonal HPV16 antibody (antibody was affinity-purified from rabbit anti-HPV VLP antisera). PBS-washed slides were incubated with donkey AF488-conjugated anti-rabbit IgG secondary antibody; phalloidin-rhodamine (Cytoskeleton, Inc., Denver, Colo.) was used for actin staining. After extensive washing with PBS, cells were mounted in Gold Antifade and immunofluorescent (IF) images were captured by confocal photo-microscopy.
(§1) (A) HPV16 PsVs were bound to HaCaT cells (one hour at 4° C.), before the addition of […]. After a one-hour incubation at 4° C., unbound virus was washed out, cells were lysed and analyzed for the content of HPV L1 protein. (B) HaCaT cells were exposed to HPV 16 PsV at 4° C. in the absence of polyR, simultaneously with polyR (0 h), or one hour after polyR treatment (+1 h). After extensive washing with PBS, cells were lysed and analyzed for the content of HPV16 L1 protein.
FIG. 16. PrS pretreated cells binding of HPV16. Confluent HaCaT cell monolayers were treated with 1 μM PrS (in CM) before the addition of 200 vge/cell HPV16 PsVs and incubated at 4° C. for one hour (conditions to prevent virus internalization). After washing out of unbound virus, cells were lysed (25 mM Tris pH7.5, 150 mM NaCl, 1% Triton-X100 supplemented with protease inhibitors) and centrifuged at 16,000×g for 10 minutes. Protein concentrations in supernatant were measured using the Bradford method (Bio-Rad Laboratories, Inc., Hercules, Calif.). Samples were boiled in SDS-containing sample buffer, and aliquots containing equal amount of protein (˜50 μg to 200 μg) separated by SDS-polyacrylamide gel electrophoresis (SDS-PAGE) using 10% gel. […]

[4] = system: HPV16 PsVs; test: Dissociation of cell-bound HPV16 PsVs from HaCaT cells (L1 immunoblot); assay type: cell-based; conditions: 5 μM added to HPV-bound HaCaT cells, 1 h 4° C.
Protocol: as §1
FIG. 19. […] HPV16 PsVs were bound to HaCaT cells (one hour in cold), before the addition of 5 μM PrS. After a one-hour incubation at 4° C., unbound virus was washed out, cells were lysed, and HPV L1 protein content was measured as described in FIG. 16.
To determine whether polyR could cause HPV16 dissociation from cells, HPV16 PsVs were bound to HaCaT cells for one hour at 4° C. After washing away unbound virus, HPV-bound cells were incubated with 3 μM polyR for one hour at 4° C.; control cells were untreated. Cells were lysed and analyzed for HPV L1 protein content. […]
The post-attachment inhibitory effects of PrS could be due the displacement of capsids from the cell surface. […] After a one-hour incubation at 4° C., unbound virus was washed out, cells were lysed, and the HPV L1 protein content was analyzed.

[5] = molecular target: T1, recombinant His-furin (Homo sapiens, UniProt P09958); test: Furin cleavage of HPV16 L2 capsid protein (immunoblot); assay type: biochemical; conditions: 30 μM, 3 nM His-furin, 2 h 37° C.
T1 construct: His
T1 sequence (P09958 108-794): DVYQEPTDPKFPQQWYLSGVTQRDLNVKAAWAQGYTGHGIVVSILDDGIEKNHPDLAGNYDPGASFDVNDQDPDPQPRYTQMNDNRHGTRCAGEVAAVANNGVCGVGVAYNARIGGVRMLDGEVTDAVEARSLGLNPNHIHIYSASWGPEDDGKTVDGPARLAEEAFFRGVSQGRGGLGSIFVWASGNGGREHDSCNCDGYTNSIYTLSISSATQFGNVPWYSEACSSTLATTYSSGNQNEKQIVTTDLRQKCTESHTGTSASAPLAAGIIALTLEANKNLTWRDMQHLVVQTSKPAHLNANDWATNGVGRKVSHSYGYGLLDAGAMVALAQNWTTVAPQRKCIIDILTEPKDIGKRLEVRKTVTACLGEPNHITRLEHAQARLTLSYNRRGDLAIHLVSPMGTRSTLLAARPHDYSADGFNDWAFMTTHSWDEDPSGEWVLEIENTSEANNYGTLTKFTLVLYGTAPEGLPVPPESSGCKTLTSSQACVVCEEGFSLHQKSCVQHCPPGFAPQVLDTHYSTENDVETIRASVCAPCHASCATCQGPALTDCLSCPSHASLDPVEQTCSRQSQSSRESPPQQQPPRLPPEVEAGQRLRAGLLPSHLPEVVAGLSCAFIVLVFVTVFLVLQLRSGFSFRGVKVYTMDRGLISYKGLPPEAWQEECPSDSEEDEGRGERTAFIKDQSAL
Protocol: FIG. 9. PolyR inhibits HPV16 L2 protein cleavage by furin and induces accumulation of internalized virus particles in late endosomal fraction. (A) Equal amount of HPV16 diluted in 50 μl furin assay buffer (1 mM CaCl2), 100 mM HEPES, 0.5% Triton X-100, 1 mM β-mercaptoethanol) was loaded into six tubes, […], in the presence of 1.3 μM furin inhibitor1 (Merck Millipore Corp., Burlington, Mass.), or 1 μM polyR. Samples were mixed with SDS-PAGE sample buffer and boiled before fractionation on 9% gel. Proteins were transferred onto PVDF membranes and after blocking, incubated with affinity-purified rabbit anti-HPV16 polyclonal antibody. Secondary donkey anti-rabbit horseradish peroxidase-coupled antibody was used for detection of HPV16 capsid proteins. (B) HaCaT cells grown on coverslips were incubated with HPV16 PsVs for one hour at 37° C. to initiate virus binding (and partial internalization) before adding 1 μM polyR and further incubated for seven hours. […]
Cleavage of the L2 minor capsid protein by the cellular pro-protein convertase, furin, is an essential step in infectious entry of HPVs. […] After two hours of incubation, HPV16 cleavage was assessed by immunoblotting using anti-HPV 16 polyclonal antibody. […]

protamine sulfate (MPRRRRSSSRPVRRRRRPRVSRRRRRRGGRRRR; also: sulfate salt; listed as Oncorhynchus keta) [PrS, sulfate form of salmon protamine, FDA approved arginine-rich polypeptide, reference compound]
IC50 ([1]; 1 h pretreatment, 350 vge/cell, read-out: IC50 of HPV16 infection in HaCaT cells): ~100 nM | effect of pre-incubation of HPV16 PsVs on infection [2]: does not inhibit infection | HPV16 binding to pretreated cells (L1 Western blot) ([3]; 1 μM in CM, 200 vge/cell): almost completely blocked HPV16 binding | inhibition of HPV16 binding at acidic conditions ([3]; pH 4.5, 2 μM PrS (complex: 0.1% HMW HA:2 μM PrS)): 60% | release of HPV16 from membrane [4]: did not induce HPV16 release from membrane

CCCCCCCCCC(=O)N[C@@H](CCCN=C(N)N)C(=O)N[C@H](C(=O)N[C@@H](CCCCN)C(=O)N[C@@H](CCCN=C(N)N)C(=O)CCl)C(C)C [FI, reference compound] (Decanoyl-RVKR-CH2Cl)
furin cleavage of L2 capsid protein [5]: inhibited cleavage of the L2 capsid protein

TAT: YGRKKRRQRRR; arginine-rich fragment of the HIV transactivator protein
inhibition of HPV16 PsV infection [1]: 44%

N=C(N)NCCC[C@H](NC(=O)[C@H](CCCNC(=N)N)NC(=O)[C@H](CCCNC(=N)N)NC(=O)[C@H](CCCNC(=N)N)NC(=O)[C@H](CCCNC(=N)N)NC(=O)[C@H](CCCNC(=N)N)NC(=O)[C@H](CCCNC(=N)N)NC(=O)[C@H](CCCNC(=N)N)NC(=O)[C@@H](N)CCCNC(=N)N)C(=O)O [R9, arginine nonapeptide]
inhibition of HPV16 PsV infection [1]: 66%

— patent US11045519B2, “Arginine-rich polypeptide compositions and methods of using same” (UNM Rainforest Innovations, priority 2017, dated 2021)
